From the NIST ThermoML archive (doi:10.1016/j.jct.2012.09.028)
± gives the expanded uncertainty stated by the source.

Settings: 101.33 kPa, Crystal, Vacuum adiabatic calorimetry

O=C[C@H](O)[C@@H](O)[C@H](O)CO [D-xylose]
Settings | molar entropy [J/K/mol]
0.5 K | 0.0002783
1 K | 0.0007579
1.5 K | 0.001652
2 K | 0.003197
2.5 K | 0.005661
3 K | 0.009356 ± 0.015
3.5 K | 0.01464 ± 0.015
4 K | 0.02194 ± 0.015
4.5 K | 0.0317 ± 0.015
5 K | 0.04448 ± 0.016
5.5 K | 0.06082 ± 0.016
6 K | 0.08137 ± 0.016
6.5 K | 0.1068 ± 0.016
7 K | 0.1377 ± 0.017
7.5 K | 0.1749 ± 0.017
8 K | 0.219 ± 0.018
8.5 K | 0.2706 ± 0.018
9 K | 0.3303 ± 0.019
9.5 K | 0.3987 ± 0.02
10 K | 0.4763 ± 0.021
11 K | 0.6598 ± 0.023
12 K | 0.8803 ± 0.025
13 K | 1.138 ± 0.028
14 K | 1.432 ± 0.03
15 K | 1.761 ± 0.033
16 K | 2.122 ± 0.036
17 K | 2.515 ± 0.04
18 K | 2.935 ± 0.043
19 K | 3.383 ± 0.045
20 K | 3.854 ± 0.048
25 K | 6.505 ± 0.06
30 K | 9.489 ± 0.089
35 K | 12.65 ± 0.099
40 K | 15.88 ± 0.11
45 K | 19.14 ± 0.12
50 K | 22.41 ± 0.13
55 K | 25.66 ± 0.14
60 K | 28.89 ± 0.15
65 K | 32.12 ± 0.16
70 K | 35.35 ± 0.17
75 K | 38.56 ± 0.18
80 K | 41.77 ± 0.19
85 K | 44.96 ± 0.2
90 K | 48.15 ± 0.37
95 K | 51.33 ± 0.38
100 K | 54.5 ± 0.38
110 K | 60.81 ± 0.39
120 K | 67.1 ± 0.4
130 K | 73.34 ± 0.41
140 K | 79.56 ± 0.42
150 K | 85.75 ± 0.43
160 K | 91.91 ± 0.44
170 K | 98.05 ± 0.45
180 K | 104.16 ± 0.46
190 K | 110.25 ± 0.47
200 K | 116.32 ± 0.47
210 K | 122.38 ± 0.48
220 K | 128.42 ± 0.49
230 K | 134.45 ± 0.5
240 K | 140.47 ± 0.51
250 K | 146.47 ± 0.52
260 K | 152.47 ± 0.53
270 K | 158.46 ± 0.54
273.15 K | 160.35 ± 0.54
280 K | 164.44 ± 0.55
290 K | 170.42 ± 0.56
298.15 K | 175.29 ± 0.56
300 K | 176.4 ± 0.56
